Source: paper PMC3472974, “The Bite of the Honeybee: 2-Heptanone Secreted from Honeybee Mandibles during a Bite Acts as a Local Anaesthetic in Insects and Mammals” (PLoS ONE, 2012)
≈ marks a conversion by molar mass, not a printed value. Marks after values point to notes of the source that are not given here.

Key:
[1] = test system: honeybees; parameters: method as in earlier work; settings: cited from earlier work
[2] = test system: isolated rat sciatic nerve; experiment: tissue or blood
Source text: The ex vivo studies used both male and female rats weighing between 230 and 250 g. Animals were sacrificed using light anaesthesia with CO2 and cervical dislocation. The sciatic nerve of the rat, consisting of 27,000 sciatic nerve fibres, was isolated in a three-chamber recording bath (Fig. 5b). The sciatic nerves were dissected from the spinal cord to the knee, immersed in oxygenated (O2, 100%) saline solution and cleaned. The composition of the saline was (in mmoles/L): 136 NaCl, 11 glucose, 4.7 KCl, 2.4 CaCl2, 1.1 MgCl2, 1 NaHCO3, 10 HEPES, pH = 7.2). All experiments were performed at a constant temperature, 26.0±1.0°C. […] The nerve was mounted in a three-chambered recording bath made of Plexiglas, which is described elsewhere, [30]. The recording bath consisted of the recording (R in Fig. 5b), perfusion (P) and stimulating (S) chambers, each with a volume of 12 mL. The nCAP (Fig. 5a) was generated by stimulating (1 Hz) the part of the nerve in the stimulating chamber and was recorded in the recording chamber every second using standard electrophysiological methods. The nCAP was monitored throughout the experiment as an indication of the vitality of the nerve fibres in the recording bath. […] Immediately after the nCAP was eliminated, the saline+compound was removed and the nerve was washed out. Then, recovery of the nCAP in normal stagnant saline was monitored for 24 h. It is worth noting that the recording bath is designed in such a way that the chambers with the saline and 2-H (the nerves and the recording electrodes) was shielded from the air by using the cover (c in Fig. 5b) to avoid evaporation of the volatile 2-H. The saline with 2-H was added through a small diameter opening on the cover.
For further data analysis, the amplitude of the nCAPs, estimated from baseline to peak (Fig. 5), were measured at a specific time (every 1.0 s, 1.0 min or 1.0 h) and were expressed as a percentage of the amplitude of the nCAP at t = 0 (which was considered to be 100%). In the neuropharmacological experiments, time t = 0 was considered the time before application of the compound under investigation. […] The data were fitted in the program GraphPad Prism 5.0 using a one-phase exponential decay equation for the IC50. Data were analyzed by one-way ANOVA and Bonferroni’s post hoc tests, when required. Significance was determined using Students t-test or ANOVA as appropriate (p<0.05).

[3] = test system: wax moth larvae (WML); experiment: Locomotory pattern of tethered wax moth larvae after injection; assay type: in vivo, Galleria mellonella; settings: 2.5 µL injected (8.15 mg per 1 g body weight), larger WML body weight 0.25 g
Source text: To monitor the constant locomotory pattern of WML, the probe of a force-displacement transducer (FT-03C, Grass Instrument Company, USA), attached to a micromanipulator, was hooked onto the tail of the WML, while the head was carefully pinned to a wax substrate, [14]. The electrical signal generated by the rhythmic force produced during locomotion was amplified and fed to a computer through a data acquisition card interface (Keithley KPCI 3102, Keithley Instruments, Cleveland, OH, USA). Software designed using the facilities of Labview (Labview 5.1, National Instruments USA) permitted analysis of the recorded data.

[4] = test system: honeybees; experiment: Recruitment of defensive honeybees at the colony entrance, BeeSCAN counters; assay type: in vivo, Apis mellifera; settings: control 46.42
Experimental: We first tested the dominant hypothesis that honeybees secrete 2-H as an alarm pheromone that recruits other honeybees in the face of a potential threat. We monitored honeybee response to different doses of 2-H applied at colony entrances. In control colonies, which were not exposed to 2-H, an average of 46.42 bees left the colony per minute (n = 5, SEM = 0.43). There was no statistical difference, 10 minutes after application, between the mean number of bees recruited in control colonies and those recruited in colonies exposed to 0.1 µL 2-H (mean = 47.18, n = 5, SEM = 0.36, p = 1.000). In contrast, higher doses of 2-H acted as a repellent.
We conducted field experiments at the apiary, in which we used electronic monitoring devices (BeeSCAN v2.03) to test whether the presence of 2-H on the colony flight boards stimulated recruitment of defensive honeybees. The monitoring devices counted the number of honeybees exiting the beehive once per minute for 10 minutes for each of the five colonies per treatment. […] To apply 2-H, we followed the standard methodology described in previous experiments.

[5] = biological target: T1, hNav1.2 channels (Homo sapiens, UniProt Q99250); experiment: Patch-clamp (PatchXpress 7000A) on transfected CHO cells, hNav1.2; assay type: cell-based; settings: for IC50: CHO cells, n = 6, mean ± SEM, 2-H exposure limited to 3 min; for times less active than lidocaine: hNav1.2
T1 construct: expressed in transfected cells; host or cells: CHO-K1 (ATCC CCL-61)
Source text: To test whether 2-H can act by blocking VGNaCs, the PatchXpress 7000A was used. Mammalian CHO (Chinese hamster ovary) transfected with ion hNav1.2 and hNav1.6 channels cDNAs (SCN2A and SCN8A genes) were exposed to 2-H under both tonic and phasic conditions. The mammalian CHO-K1 epithelial embryonic cell line (ATCC number CCL-61) from Cricetulus griseus was obtained from ATCC, Manassas, VA. CHO-K1 cells were transfected with either hNav1.2 or hNav1.6 channel cDNA (SCN2A and SCN8A genes, respectively) and were exposed to 2-H under both tonic and phasic conditions.
The effects of 2-H were evaluated on hNav1.2 at 0.73, 1.46, 2.19, and 2.92 mg/mL and on hNav1.6 channels at 0.1, 0.36, 0.73, and 1.46 mg/mL, with each concentration tested in at least six cells (n = 6). Cells were exposed to each concentration of 2-H and measurements of the inward current were obtained within the first 3 min of exposure. […] Since the PatchXpress has open cell chambers where the testing occurs, there is no way to hermetically seal the experiment.
Based on this analysis, we estimated the IC50.

[6] = test system: rat; settings: oral rat; no reference given; cited from earlier work
[7] = test system: nerves of the rat tail; parameters: method as in PMID 6093852; settings: cited from earlier work
[8] = no reference given; cited from earlier work

T1 sequence (Q99250 whole entry): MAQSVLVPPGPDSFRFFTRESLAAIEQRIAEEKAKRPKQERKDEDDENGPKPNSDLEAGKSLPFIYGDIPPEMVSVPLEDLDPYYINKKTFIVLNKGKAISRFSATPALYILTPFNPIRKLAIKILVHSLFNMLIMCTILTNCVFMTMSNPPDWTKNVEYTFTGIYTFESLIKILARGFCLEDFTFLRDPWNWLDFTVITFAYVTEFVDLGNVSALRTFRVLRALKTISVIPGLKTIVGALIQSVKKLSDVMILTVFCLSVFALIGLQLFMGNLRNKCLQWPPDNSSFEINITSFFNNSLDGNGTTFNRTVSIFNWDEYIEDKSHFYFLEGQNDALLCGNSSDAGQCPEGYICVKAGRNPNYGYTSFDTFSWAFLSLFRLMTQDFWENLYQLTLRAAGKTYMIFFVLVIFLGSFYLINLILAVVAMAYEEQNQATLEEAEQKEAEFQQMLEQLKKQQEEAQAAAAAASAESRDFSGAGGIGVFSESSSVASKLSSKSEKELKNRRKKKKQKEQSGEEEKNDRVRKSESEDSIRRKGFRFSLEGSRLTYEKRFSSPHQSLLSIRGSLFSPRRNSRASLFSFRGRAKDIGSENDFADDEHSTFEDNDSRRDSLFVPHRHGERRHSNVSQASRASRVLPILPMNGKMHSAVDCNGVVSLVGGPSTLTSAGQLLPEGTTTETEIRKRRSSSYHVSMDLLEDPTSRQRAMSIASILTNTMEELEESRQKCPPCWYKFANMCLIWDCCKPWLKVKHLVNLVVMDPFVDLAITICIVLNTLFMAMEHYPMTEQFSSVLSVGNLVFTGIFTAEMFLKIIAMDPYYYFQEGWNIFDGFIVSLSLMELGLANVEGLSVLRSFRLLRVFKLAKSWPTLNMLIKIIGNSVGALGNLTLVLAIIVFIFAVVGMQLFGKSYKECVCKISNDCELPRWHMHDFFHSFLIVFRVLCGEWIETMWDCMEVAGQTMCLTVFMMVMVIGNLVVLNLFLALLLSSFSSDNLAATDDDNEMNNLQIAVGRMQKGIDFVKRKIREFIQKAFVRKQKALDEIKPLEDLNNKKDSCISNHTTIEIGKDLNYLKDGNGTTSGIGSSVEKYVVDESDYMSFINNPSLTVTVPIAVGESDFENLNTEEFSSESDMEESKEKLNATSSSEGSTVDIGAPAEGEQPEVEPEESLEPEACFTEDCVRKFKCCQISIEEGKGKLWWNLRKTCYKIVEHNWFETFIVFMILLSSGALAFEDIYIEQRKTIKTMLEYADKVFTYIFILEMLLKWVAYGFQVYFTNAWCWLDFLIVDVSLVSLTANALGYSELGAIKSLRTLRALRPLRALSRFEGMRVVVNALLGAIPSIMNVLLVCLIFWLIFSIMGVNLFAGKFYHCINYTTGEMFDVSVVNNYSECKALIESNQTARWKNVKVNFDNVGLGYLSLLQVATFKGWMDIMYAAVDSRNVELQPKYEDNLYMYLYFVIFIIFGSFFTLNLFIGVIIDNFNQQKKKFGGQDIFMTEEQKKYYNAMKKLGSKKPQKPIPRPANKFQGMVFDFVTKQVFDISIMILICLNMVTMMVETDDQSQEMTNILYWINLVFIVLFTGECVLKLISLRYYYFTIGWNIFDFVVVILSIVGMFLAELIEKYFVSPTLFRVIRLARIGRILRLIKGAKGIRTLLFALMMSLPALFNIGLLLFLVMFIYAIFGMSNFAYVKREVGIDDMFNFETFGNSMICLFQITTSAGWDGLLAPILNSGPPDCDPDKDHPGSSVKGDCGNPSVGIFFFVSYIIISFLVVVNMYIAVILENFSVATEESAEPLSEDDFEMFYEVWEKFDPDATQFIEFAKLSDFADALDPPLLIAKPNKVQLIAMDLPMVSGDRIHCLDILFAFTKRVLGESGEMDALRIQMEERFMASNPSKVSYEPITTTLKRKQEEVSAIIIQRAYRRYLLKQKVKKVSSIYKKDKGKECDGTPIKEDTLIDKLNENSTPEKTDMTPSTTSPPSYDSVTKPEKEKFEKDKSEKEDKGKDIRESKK

CCCCCC(C)=O [2-H, 2-heptanone]
low concentration easily detectable by honeybees [1]: 4.049 µg/mL
neurotoxic action in 24 h monitoring of nerve vitality [2]: no neurotoxic action
IT0 (time required for 100% inhibition of the nCAP) ([2]; 1.41 mg/mL): 517.5 ± 25.62 s
IT50 (time to inhibit nCAP amplitude to 50% of control) ([2]; 1.41 mg/mL): 109.7 ± 2.87 s
IT0 (time required for 100% inhibition of the nCAP) ([2]; 2.28 mg/mL): 358.8 ± 18.07 s
IT50 (time to inhibit nCAP amplitude to 50% of control) ([2]; 2.28 mg/mL): 108.9 ± 0.22 s
IT0 (time required for 100% inhibition of the nCAP) ([2]; 3.41 mg/mL): 221.88 ± 7.32 s
IT50 (time to inhibit nCAP amplitude to 50% of control) ([2]; 3.41 mg/mL): 39.14 ± 4.84 s
time to complete elimination of the nCAP ([2]; 3.41 mg/mL): 221.88 s
IT0 (time required for 100% inhibition of the nCAP) ([2]; 10 mg/mL): 195 ± 12 s
IT50 (time to inhibit nCAP amplitude to 50% of control) ([2]; 10 mg/mL): 22.3 ± 1.1 s
IC50 ([2]; Rattus norvegicus, read-out: IC50 from concentration-response curves of the IT0 values): 469 µg/mL (≈ 4.11 mM)
IT0 ([2]; Table 3, 3.41 mg/mL, unit not given in Table 3, s): 221.88±7.32^a seconds
IT50 ([2]; Table 3, 3.41 mg/mL, unit not given in Table 3, seconds per Table 2): 39.14 ± 4.84 s
recovery of nCAP amplitude after wash with normal saline ([2]; after elimination of nCAP, remained at this level for at least 24 h, n = 8): 89.51%
effect on locomotory pattern [3]: body movement stopped abruptly
recovery time of locomotory pattern ([3]; n = 8): 87.62 min
mean number of bees leaving the colony per minute ([4]; 0.1 µL 2-H at colony entrance, 10 minutes after application, p = 1.000): 47.18 per minute
mean number of honeybees exiting the hive per minute ([4]; 10 µL 2-H at colony entrance, p = 0.003): 42.54 per minute
mean number of honeybees exiting the hive per minute ([4]; 1000 µL 2-H at colony entrance, p = 0.002): 40.88 per minute
IC50 ([5]; Phasic Experiment): 6.57 mM
IC50 ([5]; Tonic Experiment): 9.02 mM
times less active than lidocaine ([5]; phasic experiments): 7.50 times
times less active than lidocaine ([5]; tonic experiments): 3.97 times
acute LD50 [6]: 1670 mg/kg
neurotoxic effects in vivo [7]: no neurotoxic effects
logP [8]: 1.98
